Earlier results, collected in patent EP1239867B1, “METHODS FOR TREATING AND PREVENTING DAMAGE TO MUCOSAL TISSUE” (University of Southern California, priority 1999, dated 2005).
Square brackets hold non-standard residues; d marks the D form. Ends that are not written are not given here. Phe(4-NH2) = Nc1ccc(C[C@H](N)C(=O)O)cc1

Test system: AT2 receptor

Row | affinity for AT2 than AT1 (times higher) (selectivity AT2 over AT1, Speth and Kim, BBRC 169:997-1006 (1990)) [times] | Substance | binding characteristics (in words) (experimental models of Catalioto et al. 1994, Bryson et al. 1992)
1 | 100 | Asp-Arg-Val-Tyr-Ile-His-Pro-Phe [AII] | 
2 |  | Asp-Arg-Val-Tyr-Ile-Xaa-Pro-Phe (DRVYI[Phe(4-NH2)]PF) [p-aminophenylalanine6-AII] | comparable to AT2 antagonists
